Results on 11 molecules are retold here after ChEMBL document CHEMBL3045131, “Cyclopenta[b]benzofurans from Aglaia species with pronounced antifungal activity against rice blast fungus (Pyricularia grisea)” (J Agric Food Chem, 2000).

Broadly, the EC50 is the concentration needed to bring the measured effect to its halfway point. One may read the EC90 as the concentration needed for an effect of 90%. A word on the MIC: it is the lowest concentration found to suppress growth.

Converted amounts (≈) assume the structure as drawn. The source made the active and inactive calls. The rule behind the calls is not given here.

Common to all, as to assay type: functional, organism-based
The subject of experiment [1] is Alternaria citri. The experiment in a line: Antifungal activity against Alternaria citri CBS 192.81; VIAM MA1628 assessed as inhibition of spore germination by microdilution technique linked with digital image analysis.
The subject of a further experiment is Fusarium avenaceum. The experiment in a line: Antifungal activity against Fusarium avenaceum VIAM MA1512 assessed as inhibition of spore germination by microdilution technique linked with digital image analysis.
Another experiment has as its system Pyricularia grisea. In words: Antifungal activity against Magnaporthe grisea VIAM MA1627 assessed as inhibition of spore germination by microdilution technique linked with digital image analysis. (In broth dilution the organism is exposed to a series of concentrations in liquid medium.)
For experiment [2], the system named is Alternaria citri. In words: Antifungal activity against Alternaria citri CBS 192.81; VIAM MA1628 assessed as inhibition of spore germination at 200 ug/ml by microdilution technique linked with digital image analysis.

In the case of `COC(=O)[C@H]1[C@@H](O)[C@@]2(O)c3c(OC)cc(OC)cc3O[C@@]2(c2ccc(OC)cc2)[C@@H]1c1ccccc1` [AGLAFOLIN], in the experiment on Alternaria citri [1], the 50% effective concentration (EC50) is 44 µg/mL (≈ 89.3 µM), the concentration for an effect of 90% (EC90) was 171 µg/mL (≈ 347 µM) and the minimum inhibitory concentration (MIC) was found to be 200 µg/mL (≈ 406 µM). In the experiment with Fusarium avenaceum, the EC50 was found to be 1.6 µg/mL (≈ 3.25 µM), the EC90 was 38 µg/mL (≈ 77.2 µM) and the MIC was 100 µg/mL (≈ 203 µM). In the experiment with Pyricularia grisea, the EC50 stood at 0.05 µg/mL (≈ 0.102 µM), the concentration for an effect of 90% (EC90) amounted to 8 µg/mL (≈ 16.2 µM) and the MIC was determined as 3 µg/mL (≈ 6.09 µM).
On to `COc1ccc(C2C(=O)Oc3cc4c(c(OC)c32)OCO4)cc1` (configuration not stated) [AGLALACTONE], for which, in the experiment on Pyricularia grisea, the EC50 was over 200 µg/mL, the EC90 is over 200 µg/mL and the MIC was over 200 µg/mL.
Turning to `COc1ccc([C@@]23Oc4cc5c(c(OC)c4[C@]2(O)[C@H](O)[C@H](C(=O)N(C)C)[C@H]3c2ccccc2)OCO5)cc1` [AGLAROXIN A], in the experiment on Pyricularia grisea, the EC50 amounted to 1.4 µg/mL (≈ 2.69 µM), the EC90 is over 200 µg/mL and the minimal inhibitory concentration (MIC) was found to be 100 µg/mL (≈ 192 µM).
Turning to `CCCCNC(=O)n1c(NC(=O)OC)nc2ccccc21` [BENOMYL], in the experiment on Alternaria citri [1], the EC50 was over 200 µg/mL, the EC90 is over 200 µg/mL and the MIC is over 200 µg/mL. Besides, in the experiment on Fusarium avenaceum, the EC90 is over 200 µg/mL and the MIC came out at 100 µg/mL (≈ 344 µM). In the experiment with Pyricularia grisea, the EC90 was found to be 84 µg/mL (≈ 289 µM) and the MIC was found to be 200 µg/mL (≈ 689 µM).
For `CN(CC[C@H](N)CC(=O)N[C@H]1C=C[C@H](n2ccc(N)nc2=O)O[C@@H]1C(=O)O)C(=N)N` [BLASTICIDIN_S], the figures for the EC50 in the experiment on Alternaria citri [1] and with Fusarium avenaceum were 6 µg/mL (≈ 14.2 µM) and 0.4 µg/mL (≈ 0.947 µM), respectively. Further, the results for the EC90 in the experiment with Alternaria citri [1], in the experiment on Fusarium avenaceum and with Pyricularia grisea were 53 µg/mL (≈ 125 µM), 7 µg/mL (≈ 16.6 µM) and over 200 µg/mL, respectively. In addition, the MIC in the experiment with Alternaria citri [1] is 50 µg/mL (≈ 118 µM); with Fusarium avenaceum, 25 µg/mL (≈ 59.2 µM); in the experiment on Pyricularia grisea it was over 200 µg/mL.
For `CNC(=O)[C@H]1[C@@H](O)[C@@]2(O)c3c(OC)cc(OC)cc3O[C@@]2(c2ccc(OC)cc2)[C@@H]1c1ccccc1` [DESMETHYL ROCAGLAMIDE], in the experiment on Pyricularia grisea, the EC50 worked out at 7 µg/mL (≈ 14.2 µM), the EC90 was found to be 146 µg/mL (≈ 297 µM) and the MIC turned out to be 100 µg/mL (≈ 203 µM).
Turning to `COC(=O)[C@H]1[C@@H](O)[C@@]2(O)c3c(cc4c(c3OC)OCO4)O[C@@]2(c2ccc(OC)cc2)[C@@H]1c1ccccc1` [PANNELLIN], in the experiment with Alternaria citri [1], the EC50 was over 200 µg/mL, the EC90 is over 200 µg/mL and the MIC was over 200 µg/mL. Also, in the experiment with Fusarium avenaceum, the EC50 was 11 µg/mL (≈ 21.7 µM), the EC90 is over 200 µg/mL and the MIC worked out at 200 µg/mL (≈ 395 µM). Moreover, in the experiment on Pyricularia grisea, the EC50 worked out at 0.06 µg/mL (≈ 0.118 µM), the EC90 amounted to 171 µg/mL (≈ 338 µM) and the MIC stood at 50 µg/mL (≈ 98.7 µM).
In the case of `COc1ccc([C@@]23Oc4cc(OC)cc(OC)c4[C@]2(O)[C@H](O)[C@H](C(=O)N(C)C)[C@H]3c2ccccc2)cc1` [ROCAGLAMIDE], in the experiment with Alternaria citri [1], the EC50 is over 200 µg/mL, the EC90 was over 200 µg/mL and the MIC was over 200 µg/mL. Moreover, in the experiment on Fusarium avenaceum, the EC50 was determined as 8 µg/mL (≈ 15.8 µM), the EC90 was 66 µg/mL (≈ 131 µM) and the MIC is 200 µg/mL (≈ 396 µM). For the same molecule, in the experiment with Pyricularia grisea, the EC50 came to 0.9 µg/mL (≈ 1.78 µM), the concentration for an effect of 90% (EC90) was 35 µg/mL (≈ 69.2 µM) and the MIC stood at 25 µg/mL (≈ 49.4 µM).
As for `COc1ccc([C@@]23Oc4cc(OC)cc(OC)c4[C@]2(O)[C@H](O)C[C@H]3c2ccccc2)cc1` [ROCAGLAOL], the EC50 is 6 µg/mL (≈ 13.8 µM) with Alternaria citri [1], 0.4 µg/mL (≈ 0.921 µM) in the experiment with Fusarium avenaceum and 0.01 µg/mL (≈ 0.023 µM) in the experiment with Pyricularia grisea. Also, the EC90 was 24 µg/mL (≈ 55.2 µM) in the experiment with Alternaria citri [1], 9 µg/mL (≈ 20.7 µM) in the experiment on Fusarium avenaceum and 0.3 µg/mL (≈ 0.69 µM) in the experiment on Pyricularia grisea. Moreover, the MIC with Alternaria citri [1] was determined as 50 µg/mL (≈ 115 µM); in the experiment on Fusarium avenaceum it was 25 µg/mL (≈ 57.5 µM); in the experiment with Pyricularia grisea, 1.6 µg/mL (≈ 3.68 µM). For the same molecule, in the experiment on Alternaria citri [2], the outcome was inactive.
For `COc1ccc([C@]2(C(=O)O)Oc3cc4c(c(OC)c3C(=O)[C@H](C(=O)N3CCCC3NC(=O)C(C)C)[C@H]2c2ccccc2)OCO4)cc1` (some centres not stated) [THAPOXEPINE A], in the experiment with Pyricularia grisea, the EC50 is over 200 µg/mL, the EC90 was over 200 µg/mL and the minimal inhibitory concentration (MIC) is over 200 µg/mL.
For the molecule `COC(=O)[C@@H]1[C@@]2(O)c3c(cc4c(c3OC)OCO4)O[C@]1(c1ccc(OC)cc1)[C@H](c1ccccc1)[C@H]2C(=O)N1CCCC1NC(=O)C(C)C` (some centres not stated) [THAPSAKINACETATE A], in the experiment on Pyricularia grisea, the EC50 is over 200 µg/mL, the EC90 was over 200 µg/mL and the MIC is over 200 µg/mL.
